According to patent publication EP3892734B1, “SCREENING METHODS AND THERAPEUTIC APPLICATIONS BASED ON BACTERIAL MOTILITY INHIBITION” (Ludwig-Maximilians-Universität München, priority 2020, dated 2021):
Converted amounts (≈) assume the structure as drawn. “And” between values parts separate entries of the source, which are not always exact repeats. Equal values may be shown once. “Also recorded” adds a separate entry of the source. Read-outs that look alike come from different tables or passages of the source.

Assays:
[1] = plasma cytokine analysis by Bioplex multiplex bead assay in treated mice; format: in vivo, C57B/L6 mice; conditions: chronic mouse infection model, BioRad Bioplex assay
Protocol: Before the infection and at the end of the treatment experiment, mouse blood was taken from the eye vein of a few selected mice (approximately 30 to 100 µl per mouse). The blood plasma was subsequently separated from cells using separation centrifugation devices (Sarstedt Microvette lithium-heparin). Plasma was diluted in Biorad Bioplex assay buffer to one fourth of the initial concentration and measured in the 23-Plex BioPlex bead-based multiplex cytokine assay (Biorad #m60009rdpd) according to the manufacturer's instructions and using the provided standards. Each sample was measured in a total volume of 50 µl in duplicate.

[2] = test system: H. pylori flaA-luciferase reporter strain N6; assay: microbe, parasite or virus in culture; format: cell-based, Helicobacter pylori
Text: The H. pylori flaA promoter was fused with a luciferase operon (luxAB) from Vibrio harveyi in a H. pylori suicide plasmid (Niehus, Ye, Suerbaum, & Josenhans, 2002). The flaA reporter fusion was recombined into the H. pylori chromosome and the resulting strain tested to be strongly luminescence positive. The reporter strain (N6 flaA-lux4B) activated luminescence to about 40,000 to 60,000 counts per second using luciferase substrate at an OD600 of 0.8 (mid-log phase) in liquid culture. The negative control value of a non-reporter strain or reporter strain without luminescence substrate was close to zero. […] The Z-Factor (Zhang et al., 1999) determined for the assay with various bacterial inhibitors measured in quadruplicates or triplicates was routinely between 0.6 and 0.7, with a confidence interval of 95%.
H. pylori luminescence reporter strains were passaged on blood agar plates less than 22 hours prior to the start of the experiment. The passage number for these assays was not higher than five to preserve the strain's properties and genetic stability. Luciferase reaction buffer was prepared as follows: 50 mM disodium phosphate (Na2HPO4) and 2% BSA were dissolved in HPLC water, filter sterilized, aliquoted and frozen at - 20°C.
Bacteria were harvested in brain-heart infusion medium (BHI, 3% yeast extract with 5% horse serum added) and adjusted to an OD600 of 0.8 at room temperature. 50 µl of the bacterial suspension were added per well of a 96 well plate (non-binding, Greiner Bio-One 655901). 2 µl of each of the test compounds (provided as a 10 mM DMSO solution) were added to the sample wells. The same amount of pure, diluted DMSO was added to the control wells for a concentration of a maximum of 4% DMSO per well, since higher concentrations will interfere with metabolic functions of H. pylori and cause false negative results. The microwell plate was incubated inside a sterile sealed PM Gas Bag (BIOLOG #3032) together with a CampyGen Compact pack (Oxoid) to generate microaerobic conditions at 37°C and with shaking at 175 rpm for 4 h.
Shortly before taking the measurement, the luciferase substrate was prepared by diluting the luminescence substrate decanal (10% stock, Sigma Aldrich) at a 1 :2,000 dilution in luciferase reaction buffer. 60 µl of the substrate were added per well of a white 96 microwell plate (Thermo Scientific #236105) without the lid.
For the final luciferase measurement, 10 µl of bacterial solution were transferred with the epMotion 96 (Eppendorf) simultaneously to the wells containing the luciferase substrate and incubated on a microwell plate shaker for 10 s to lyse the bacteria. The measurements were recorded with a Perkin Elmer Victor 3/WNallac 1420 plate reader (luminometry, measurement time: 0.5 sec) and integrated to counts per sec. For the background measurement, 10 µl sterile medium containing 4% DMSO was added to the wells. For each measurement, at least four luciferase reporter positive control wells (without inhibitory compound) and four negative control wells (background without bacteria) were run on the same day and under the same assay conditions in parallel.

[3] = minimal toxic dose (MTD) testing in mice; format: in vivo; conditions: oral, up to 60 mg/kg/day, listed as BL2
Protocol: (§1) The active compounds BL1 and BL2, which were chosen to be tested in a preclinical model, were initially tested for toxicity in the mouse model by […] (MTD) testing. The MTD testing (MTD Tox56000 protocol, Eurofins Panlabs) was performed according to international standards, as will be briefly outlined in the following: Three mice were dosed with the compounds at each intended dose. BL1 active compound was prepared in a suitable stock concentration in 5% DMSO, or 5% DMSO, 10% Solutol, 85% PBS (for the 40 and 60 mg/kg/day), and dosed at 10, 30, 40, or 60 mg/kg/day by intraperitoneal injection (125 µl for each dose). BL2 active compound was dosed orally, at 10 mg/kg/day, 30 mg/kg/day, or 60 mg/kg/day, diluted in 5% DMSO, 2.5% carboxy-methyl-cellulose (CMC), in PBS, also at 125 µl per dose per animal. The dosing in each case started with the lowest dose in the three animals, followed by observation for up to 72 h. Subsequently, the next higher dose was administered to a different set of three mice, etc.. Both compounds to be used subsequently for the in vivo therapeutic administration were verified to be non-toxic to mice below an administered dose of 40 mg/kg per day.

[4] = solubility observed when preparing doses for MTD testing; format: physicochemical; conditions: dosing preparations for MTD testing
Protocol: as §1

Structure (SMILES): Cn1c(CSC(=N)N)c(Cl)c(=O)n1-c1ccccc1 [Active 2]
- plasma cytokine loads [1]: No significant change of plasma cytokine loads
- IC50 ([2]; H. pylori flaA-luciferase reporter strain N6, Table 6): 2.75 µg/mL (≈ 9.27 µM)
- Luciferase assay (% of control) ([2]; H. pylori screen): 2,6 % of control
- IC50 ([2]; Helicobacter pylori, H. pylori flaA-luciferase reporter strain N6, Table 6): < 4.5 µg/mL
- IC50 ([2]; Helicobacter pylori, read-out: IC50 (luciferase assay), luciferase flagellar reporter assay, Table 3): 2.74 µg/mL and 8 µM
- inhibitory activity in luciferase reporter assay ([2]; result in words): strong inhibitor in the primary anti-flagellar reporter screen
- toxicity (MTD testing) [3]: did not show any toxicity; also recorded: not toxic
- solubility [4]: very well soluble
